Like-named read-outs stand apart in the source and are kept apart here.
Assays:
[1] = molecular target: T1, human enzyme NAMPT (full length) (Homo sapiens, UniProt P43490); experiment: NMN fluorescence biochemical assay (stimulation of NMN synthesis by NAMPT); details: for EC50: concentration giving half-maximal activation, read-out: Enzymatic EC50; for Enzymatic Emax: fold change of maximal activation compared to DMSO
T1 construct: human enzyme NAMPT (full length)
Outline: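 Full-length human NAMPT (100 nM) was preincubated 15 min at 37 °C with compound in 50 mM Tris-HCl pH 7.5, 10 mM MgCl2, 2 mM DTT, then reacted 1 h at 37 °C with 50 μM NAM, 100 μM PRPP, 4 mM ATP (stated solution concentrations). NMN was derivatised with acetophenone/KOH then formic acid and read at Ex/Em 382/445 nm; EC50 and Emax (fold over DMSO) reported.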

[2] = system: endogenous NAMPT in U2OS cells; experiment: Cellular NAD+ modulation assay (NAD/NADH-Glo, U2OS cells); assay type: cell-based; details: Homo sapiens; for maximal fold induction: read-out: Cellular Emax
Outline: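 NAD/NADH-Glo luminescence quantified NAD+ after acid treatment (60 °C, 15 min) and neutralization of DTAB lysates. Beforehand, U2OS cells seeded 16 h earlier received compound concentration series for 24 h at 37 °C. Values given as half-maximal activation concentration (EC50) and maximal fold change versus DMSO (Emax).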

[3] = NMN fluorescence assay, purified human NAMPT 100 nM
[4] = 24 hours incubation, cellular NAD+
[5] = NMN synthesis by purified human NAMPT (100 nM)
[6] = 24 hours incubation with compound

T1 sequence (P43490 whole entry): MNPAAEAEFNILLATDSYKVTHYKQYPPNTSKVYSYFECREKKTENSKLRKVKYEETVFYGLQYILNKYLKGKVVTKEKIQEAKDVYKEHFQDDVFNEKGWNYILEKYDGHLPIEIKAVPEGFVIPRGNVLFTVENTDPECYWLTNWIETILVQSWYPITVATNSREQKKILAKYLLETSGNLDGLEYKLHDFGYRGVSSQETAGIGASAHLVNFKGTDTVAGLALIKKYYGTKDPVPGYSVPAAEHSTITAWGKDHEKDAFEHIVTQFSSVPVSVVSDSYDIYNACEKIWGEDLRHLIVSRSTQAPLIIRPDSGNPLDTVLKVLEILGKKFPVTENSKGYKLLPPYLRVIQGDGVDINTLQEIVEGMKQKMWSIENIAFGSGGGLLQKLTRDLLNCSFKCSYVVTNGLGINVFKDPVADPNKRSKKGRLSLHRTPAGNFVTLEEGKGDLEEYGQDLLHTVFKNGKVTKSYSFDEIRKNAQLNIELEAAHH

| SMILES | EC50 [1, 3] | Enzymatic Emax [1] | EC50 [2, 4] | maximal fold induction [2, 4] | EC50 [1, 5] | EC50 [2, 6] | maximal fold induction [2, 6] |
| --- | --- | --- | --- | --- | --- | --- | --- |
| Cn1ncc(Cl)c1CC1c2ccccc2C(C)(C)N1Cc1ccc2[nH]c(=O)oc2c1 (centres unmarked) [Compound 613, 6-((3-((4-chloro-1-methyl-1H-pyrazol-5-yl)methyl)-1,1-dimethylisoindolin-2-yl)methyl)benzo[d]oxazol-2(3H)-one] | < 0.5 µM | A (A>3) | 0.5 to 5 µM | 1.2 to 1.5 |  |  |  |
| N#Cc1cncc(C#N)c1CC1c2ccccc2C(=O)N1Cc1ccc2[nH]nnc2c1 (centres unmarked) [Compound 351, 4-((2-((1H-benzo[d][1,2,3]triazol-5-yl)methyl)-3-oxoisoindolin-1-yl)methyl)pyridine-3,5-dicarbonitrile] | < 0.5 µM | A (A>3) | < 0.5 µM | > 1.5 |  |  |  |
| O=C1NCC2(CC(CN3C(=O)c4ccccc4C3Cc3ncccc3Br)C2)O1 (centres unmarked) [Compound 270, 2-((1-((3-bromopyridin-2-yl)methyl)-3-oxoisoindolin-2-yl)methyl)-5-oxa-7-azaspiro[3.4]octan-6-one] |  | A (A>3) |  |  | < 0.5 µM | < 0.5 µM | 1.2 to 1.5 |
| Cn1ncc(Cl)c1CC1c2ccccc2C(=O)N1CC#Cc1c[nH]nc1Cl (centres unmarked) [Compound 477, 3-((4-chloro-1-methyl-1H-pyrazol-5-yl)methyl)-2-(3-(3-chloro-1H-pyrazol-4-yl)prop-2-yn-1-yl)isoindolin-1-one] | < 0.5 µM | B (3≥B>2) | < 0.5 µM | > 1.5 |  |  |  |
| N#Cc1cccc(F)c1CC1c2ccccc2C(=O)N1Cc1ccc2[nH]c(=O)oc2c1 (centres unmarked) [Compound 170, 3-fluoro-2-((3-oxo-2-((2-oxo-2,3-dihydrobenzo[d]oxazol-6-yl)methyl)isoindolin-1-yl)methyl)benzonitrile] |  | A (A>3) |  |  | < 0.5 µM | < 0.5 µM | > 1.5 |
| Cn1ncc(Cl)c1CC1c2cc(C3CC3)ccc2C(=O)N1Cc1ccc2[nH]nnc2c1 (centres unmarked) [Compound 350, 2-((1H-benzo[d][1,2,3]triazol-5-yl)methyl)-3-((4-chloro-1-methyl-1H-pyrazol-5-yl)methyl)-5-cyclopropylisoindolin-1-one] | < 0.5 µM | A (A>3) | < 0.5 µM | > 1.5 |  |  |  |
| Cn1ncc(Cl)c1CC1c2ccc(F)cc2C(=O)N1CC1CC2(CNC(=O)O2)C1 (centres unmarked) [Compound 310, 2-((1-((4-chloro-1-methyl-1H-pyrazol-5-yl)methyl)-5-fluoro-3-oxoisoindolin-2-yl)methyl)-5-oxa-7-azaspiro[3.4]octan-6-one] |  | B (3≥B>2) |  |  | 0.5 to 5 µM | < 0.5 µM | > 1.5 |
| N#Cc1ccccc1CC1c2ccccc2C(=O)N1Cc1cc(F)c(O)c(F)c1 (centres unmarked) [Compound 197, 2-((2-(3,5-difluoro-4-hydroxybenzyl)-3-oxoisoindolin-1-yl)methyl)benzonitrile] |  | B (3≥B>2) |  |  | 0.5 to 5 µM | 0.5 to 5 µM | > 1.5 |
| O=C1NCC2(CC(CN3C(=O)c4ccccc4C3Cc3c(Cl)nc4ccccn34)C2)O1 (centres unmarked) [Compound 488, 2-((1-((2-chloroimidazo[1,2-a]pyridin-3-yl)methyl)-3-oxoisoindolin-2-yl)methyl)-5-oxa-7-azaspiro[3.4]octan-6-one] | 0.5 to 5 µM | B (3≥B>2) | < 0.5 µM | > 1.5 |  |  |  |
| O=C1c2ccccc2C(Cc2ncccc2Br)N1CCc1cn[nH]c1 (centres unmarked) [Compound 475, 2-(2-(1H-pyrazol-4-yl)ethyl)-3-((3-bromopyridin-2-yl)methyl)isoindolin-1-one] | 0.5 to 5 µM | C (2≥C) | 0.5 to 5 µM | 1.2 to 1.5 |  |  |  |
| CCc1cccnc1CC1c2ccccc2C(=O)N1Cc1ccc2[nH]c(=O)oc2c1 (centres unmarked) [Compound 182, 6-((1-((3-ethylpyridin-2-yl)methyl)-3-oxoisoindolin-2-yl)methyl)benzo[d]oxazol-2(3H)-one] |  | A (A>3) |  |  | 0.5 to 5 µM | 0.5 to 5 µM | > 1.5 |
| Cn1ncc(Cl)c1CC1c2ccccc2C(=O)N1CC1CC2(CNC(=O)N2)C1 (centres unmarked) [Compound 611, 3-((4-chloro-1-methyl-1H-pyrazol-5-yl)methyl)-2-((6-oxo-5,7-diazaspiro[3.4]octan-2-yl)methyl)isoindolin-1-one] | ≥ 5 µM | C (2≥C) | 5 to 50 µM | 1.2 to 1.5 |  |  |  |
| CCn1ncc(Cl)c1CC1c2ccccc2C(=O)N1CC1CC2(CNC(=O)O2)C1 (centres unmarked) [Compound 465, 2-((1-((4-chloro-1-ethyl-1H-pyrazol-5-yl)methyl)-3-oxoisoindolin-2-yl)methyl)-5-oxa-7-azaspiro[3.4]octan-6-one] | 0.5 to 5 µM | B (3≥B>2) | < 0.5 µM | > 1.5 |  |  |  |
| Cn1ncc(Cl)c1CC1c2cccc(F)c2C(=O)N1Cc1ccc2[nH]nnc2c1 (centres unmarked) [Compound 342, 2-((1H-benzo[d][1,2,3]triazol-5-yl)methyl)-3-((4-chloro-1-methyl-1H-pyrazol-5-yl)methyl)-7-fluoroisoindolin-1-one] | < 0.5 µM | A (A>3) | < 0.5 µM | > 1.5 |  |  |  |
| N#CCc1ccccc1CC1c2ccccc2C(=O)N1Cc1ccc2[nH]c(=O)oc2c1 (centres unmarked) [Compound 173, 2-(2-((3-oxo-2-((2-oxo-2,3-dihydrobenzo[d]oxazol-6-yl)methyl)isoindolin-1-yl)methyl)phenyl)acetonitrile] |  | B (3≥B>2) |  |  | 0.5 to 5 µM | 0.5 to 5 µM | > 1.5 |
| Cn1nc(C(F)(F)F)c(Cl)c1CC1c2ccccc2C(=O)N1Cc1ccc2[nH]nnc2c1 (centres unmarked) [Compound 362, 2-((1H-benzo[d][1,2,3]triazol-5-yl)methyl)-3-((4-chloro-1-methyl-3-(trifluoromethyl)-1H-pyrazol-5-yl)methyl)isoindolin-1-one] | < 0.5 µM | B (3≥B>2) | < 0.5 µM | > 1.5 |  |  |  |
| CC1c2cc(CN3CC4(CNC4)C3)ccc2C(=O)N1Cc1ccc2[nH]c(=O)oc2c1 (centres unmarked) [Compound 115, 6-((5-((2,6-diazaspiro[3.3]heptan-2-yl)methyl)-3-methyl-1-oxoisoindolin-2-yl)methyl) benzo[d]oxazol-2(3H)-one] |  | A (A>3) |  |  | ≥ 5 µM | 5 to 50 µM | 1.2 to 1.5 |
